Laboratory results: US11548875B2, “Inhibitor compounds for male contraception” (University of Washington, priority 2018, dated 2023)
Where a name gives a salt, the structure may show the parent alone. Read-outs that look alike come from different tables or passages of the source.

Assays:
[1] = biological target: T1, ALDH1A1 (Homo sapiens, UniProt P00352); test: Cell-based enzyme assay, retinoic acid production in ALDH1A1/H1299 cells
T1 sequence (P00352 1-501): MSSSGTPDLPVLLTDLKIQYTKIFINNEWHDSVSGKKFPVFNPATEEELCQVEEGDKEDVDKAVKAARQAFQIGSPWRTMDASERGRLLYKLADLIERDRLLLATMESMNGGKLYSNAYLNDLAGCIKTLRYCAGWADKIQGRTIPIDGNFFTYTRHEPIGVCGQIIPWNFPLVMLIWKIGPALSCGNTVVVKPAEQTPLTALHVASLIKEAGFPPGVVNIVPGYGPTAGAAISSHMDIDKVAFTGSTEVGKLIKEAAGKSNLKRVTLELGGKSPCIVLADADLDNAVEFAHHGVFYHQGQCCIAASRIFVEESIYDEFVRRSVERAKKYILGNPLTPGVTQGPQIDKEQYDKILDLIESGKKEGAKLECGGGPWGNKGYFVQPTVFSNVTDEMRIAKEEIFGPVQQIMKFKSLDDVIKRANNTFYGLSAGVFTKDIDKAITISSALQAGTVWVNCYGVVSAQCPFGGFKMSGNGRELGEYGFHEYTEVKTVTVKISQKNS
Outline: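 ALDH1A1- or ALDH1A2-stably transfected H1299 cells grown to confluence, then treated 20 h in serum-free RPMI-1640 with 2 μM all-trans-retinal plus varying inhibitor concentrations at 37 °C. Retinoic acid in cells and media quantified; inhibition from RA levels with vs without inhibitor.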

[2] = biological target: T2, ALDH1A2 (Homo sapiens, UniProt O94788); test: Inhibitor screening using purified enzymes: ALDH1A2 activity, retinoic acid production by HPLC (5 uM initial screen, then IC50); format: biochemical; parameters: histidine-tag (C); made in house; host or cells: bacterial expression (pET28 vector, IPTG induction); settings: purified enzyme
T2 sequence (O94788 1-518): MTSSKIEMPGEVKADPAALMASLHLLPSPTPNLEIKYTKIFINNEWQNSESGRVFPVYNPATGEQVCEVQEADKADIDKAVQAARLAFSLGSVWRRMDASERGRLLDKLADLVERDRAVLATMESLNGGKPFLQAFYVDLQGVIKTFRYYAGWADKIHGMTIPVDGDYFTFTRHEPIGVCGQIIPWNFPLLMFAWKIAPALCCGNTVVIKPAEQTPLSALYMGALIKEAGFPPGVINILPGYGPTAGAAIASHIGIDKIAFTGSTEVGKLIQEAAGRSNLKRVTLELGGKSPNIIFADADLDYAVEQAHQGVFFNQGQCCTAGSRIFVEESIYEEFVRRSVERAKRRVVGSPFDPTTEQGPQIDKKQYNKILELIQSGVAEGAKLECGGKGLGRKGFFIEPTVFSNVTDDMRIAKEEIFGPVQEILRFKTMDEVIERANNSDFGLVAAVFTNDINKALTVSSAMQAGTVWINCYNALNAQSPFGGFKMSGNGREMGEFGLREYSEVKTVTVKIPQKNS
Outline: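 Purified His-tagged human enzymes in 10 mM HEPES pH 8.0, 150 mM KCl, 2 mM EDTA with 2 mM NAD, all-trans-retinal substrate; retinoic acid quantified by HPLC. ALDH1A2 initial screen: 1 μg enzyme, 5 μM retinal, 5 μM inhibitor, 15 min, 37° C; IC50 runs: 0.5 μg enzyme, 0.5 μg retinal, 5 min, 37° C.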

Compound	EC50 ([1]; cell-based) [µM]	IC50 [2] [µM]	EC50 [1] [µM]
3-(4-Acryloylphenyl)-1-phenyl-1H-pyrazole-4-carbaldehyde [Compound 309]	0.73	0.005	–
3-{4-[(Chloroacetyl)amino]phenyl}-N-(3-fluorophenyl)-1-phenyl-1H-pyrazole-4-carboxamide [Compound 294]	< 0.005	0.025	–
O=Cc1cn(-c2ccccc2)nc1-c1ccc(O)cc1 [Cmpd 34]	0.469	1.73	–
CCS(=O)(=O)c1ccc(-c2nn(-c3ccccc3)cc2C(=O)Nc2cccc(F)c2)cc1 [Compound 223, 3-(4-(Ethylsulfonyl)phenyl)-N-(3-fluorophenyl)-1-phenyl-1H-pyrazole-4-carboxamide]	1.3	0.208	–
CS(=O)(=O)c1ccc(-c2nn(-c3ccccc3)cc2C(=O)Nc2cccc(F)c2O)cc1 [Compound 231, N-(3-Fluoro-2-hydroxyphenyl)-3-[4-(methylsulfonyl)phenyl]-1-phenyl-1H-pyrazole-4-carboxamide]	> 20	0.323	–
CS(=O)(=O)c1ccc(-c2nn(-c3ccc(Cl)cc3)cc2C(=O)Nc2ccccc2O)cc1 [Compound 233, N-(2-Hydroxyphenyl)-3-[4-(methylsulfonyl)phenyl]-1-(4-chloropheny)-1H-pyrazole-4-carboxamide]	13.2	0.795	–
CS(=O)(=O)c1ccc(-c2nn(-c3ccc(OC(F)(F)F)cc3)cc2C(=O)Nc2cccc(F)c2)cc1 [Compound 258, N-(3-Fluorophenyl)-1-(4-trifluoromethoxypheny)-3-[4-(methylsulfonyl)phenyl]-1H-pyrazole-4-carboxamide]	26.4	0.112	–
CS(=O)(=O)c1ccc(-c2nn(-c3ccc(C#N)cc3)cc2C(=O)Nc2cccc(C(F)(F)F)c2)cc1 [Compound 262, 1-(4-Cyanophenyl)-N-(3-trifluoromethylphenyl)-3-[4-(methylsulfonyl)phenyl]-1H-pyrazole-4-carboxamide]	> 20	0.352	–
CS(=O)(=O)c1ccc(-c2nn(-c3cccc(F)c3)cc2C(=O)Nc2cccc(C(F)(F)F)c2)cc1 [Compound 266, 1-(3-Fluorophenyl)-N-(3-trifluoromethylphenyl)-3-[4-(methylsulfonyl)phenyl]-1H-pyrazole-4-carboxamide]	> 20	0.029	–
CS(=O)(=O)c1ccc(-c2nn(-c3cccc(C#N)c3)cc2C(=O)Nc2cccc(F)c2)cc1 [Compound 268, 1-(3-Cyanophenyl)-N-(3-fluorophenyl)-3-[4-(methylsulfonyl)phenyl]-1H-pyrazole-4-carboxamide]	2.43	0.84	–
CS(=O)(=O)c1ccc(-c2nn(-c3cccc(C#N)c3)cc2C(=O)Nc2ccc(F)c(F)c2)cc1 [Compound 269, 1-(3-Cyanophenyl)-N-(3,4-difluorophenyl)-3-[4-(methylsulfonyl)phenyl]-1H-pyrazole-4-carboxamide]	3.56	0.238	–
N#Cc1ccc(-n2cc(C(=O)Nc3cccc(F)c3)c(-c3ccc(NC(=O)C(Cl)Cl)cc3)n2)cc1 [Compound 316a, 3-(4-Dichloroacetamidophenyll)-N-(3-fluorophenyl)-1-(4-cyanophenyl)-1H-pyrazole-4-carboxamide]	0.18	0.037	–

More lines, now with the values ahead:

EC50 ([1]; cell-based) [µM]	IC50 [2] [µM]	EC50 [1] [µM]	Compound
5.5	0.192	–	CS(=O)(=O)c1ccc(-c2nn(-c3ccccc3)cc2C(=O)Nc2cccc(F)c2)cc1 [Compound 178, 3-(4-(Methylsulfonyl)phenyl)-N-(3-fluorophenyl)-1-phenyl-1H-pyrazole-4-carboxamide]
2	0.081	–	CS(=O)(=O)c1ccc(-c2nn(-c3ccccc3)cc2C(=O)Nc2cccc(O)c2)cc1 [Compound 211, 3-(4-(Methylsulfonyl)phenyl)-N-(3-hydroxyphenyl)-1-phenyl-1H-pyrazole-4-carboxamide]
> 20	0.606	–	CS(=O)(=O)c1ccc(-c2nn(-c3ccccc3)cc2C(=O)Nc2cccc(Cl)c2)cc1 [Compound 219, 3-(4-(Methylsulfonyl)phenyl)-N-(3-chlorophenyl)-1-phenyl-1H-pyrazole-4-carboxamide]
10.9	0.092	–	CS(=O)(=O)c1ccc(-c2nn(-c3ccc(F)cc3)cc2C(=O)Nc2cccc(F)c2)cc1 [Compound 241, N-(3-Fluorophenyl)-3-[4-(methylsulfonyl)phenyl]-1-(4-fluorophenyl)-1H-pyrazole-4-carboxamide]
–	0.103	0.195	CCc1ccc(C(=O)N2CCN(c3ccc([N+](=O)[O-])c(N4CCCC4)c3)CC2)s1 [Compound 323, {4-[4-Nitro-3-(pyrrolidin-1-yl)phenyl]piperazin-1-yl}(5-ethylthiophen-2-yl)methanone]
–	0.058	0.44	CCOc1ccsc1C(=O)N1CCN(c2ccc([N+](=O)[O-])c(N3CCCC3)c2)CC1 [Compound 326, {4-[4-Nitro-3-(pyrrolidin-1-yl)phenyl]piperazin-1-yl}(3-ethoxythiophen-2-yl)methanone]
–	0.313	> 0.5	Cc1cc(C(=O)N2CCN(c3ccc([N+](=O)[O-])c(N4CCCC4)c3)CC2)sc1C [Compound 327, {4-[4-Nitro-3-(pyrrolidin-1-yl)phenyl]piperazin-1-yl}(4,5-dimethylthiophen-2-yl)methanone]
–	0.079	< 0.5	COc1ccsc1C(=O)N1CCN(c2ccc([N+](=O)[O-])c(N3CCCC3)c2)CC1 [Compound 329, {4-[4-Nitro-3-(pyrrolidin-1-yl)phenyl]piperazin-1-yl}(3-methoxythiophen-2-yl)methanone]
–	0.062	0.088	Nc1ccsc1C(=O)N1CCN(c2ccc([N+](=O)[O-])c(N3CCCC3)c2)CC1 [Compound 331, {4-[4-Nitro-3-(pyrrolidin-1-yl)phenyl]piperazin-1-yl}(3-aminothiophen-2-yl)methanone hydrochloride]
–	0.388	0.413	CC(=O)Nc1ccsc1C(=O)N1CCN(c2ccc([N+](=O)[O-])c(N3CCCC3)c2)CC1 [Compound 332]
–	1.33	0.26	O=C(c1ccc(F)s1)N1CCN(c2ccc([N+](=O)[O-])c(N3CCCC3)c2)CC1 [Compound 334, {4-[4-Nitro-3-(pyrrolidin-1-yl)phenyl]piperazin-1-yl}(5-fluorothiophen-2-yl)methanone]
–	0.837	0.333	O=C(c1ccccc1)N1CCN(c2ccc([N+](=O)[O-])c(N3CCCC3)c2)CC1 [Compound 339, Phenyl-1-{4-[4-nitro-3-(pyrrolidin-1-yl)phenyl]piperazin-1-yl}methanone]
–	1.45	< 0.5	O=C(c1cccc(Cl)c1)N1CCN(c2ccc([N+](=O)[O-])c(N3CCCC3)c2)CC1 [Compound 341, 3-Chlorophenyl-1-{4-[4-nitro-3-(pyrrolidin-1-yl)phenyl]piperazin-1-yl}methanone]
–	4.56	0.468	O=C(c1ccc(Cl)cc1)N1CCN(c2ccc([N+](=O)[O-])c(N3CCCC3)c2)CC1 [Compound 342, 4-Chlorophenyl-1-{4-[4-nitro-3-(pyrrolidin-1-yl)phenyl]piperazin-1-yl}methanone]
–	1.94	< 0.5	Cn1cccc1C(=O)N1CCN(c2ccc([N+](=O)[O-])c(N3CCCC3)c2)CC1 [Compound 343, [4-(4-Nitro-3-(pyrrolidin-1-yl)phenyl)piperazin-1-yl](1-methyl-1H-pyrrol-2-yl)methanone]
–	0.264	< 0.5	O=C(c1ccc[nH]1)N1CCN(c2ccc([N+](=O)[O-])c(N3CCCC3)c2)CC1 [Compound 344, {4-[4-Nitro-3-(pyrrolidin-1-yl)phenyl]piperazin-1-yl}(1H-pyrrol-2-yl)methanone]
–	3.99	< 0.5	COc1ccc(C(=O)N2CCN(c3ccc([N+](=O)[O-])c(N4CCCC4)c3)CC2)cc1 [Compound 345, 4-Methoxyphenyl-1-{4-[4-nitro-3-(pyrrolidin-1-yl)phenyl]piperazin-1-yl}methanone]
